These results are taken from ChEMBL document CHEMBL2331173, “Water-mediated interactions influence the binding of thapsigargin to sarco/endoplasmic reticulum calcium adenosinetriphosphatase” (J Med Chem, 2013).

Broadly, the Kd is a measure of binding affinity in units of concentration.

In this test the target is Sarcoplasmic/endoplasmic reticulum calcium ATPase 1 (Oryctolagus cuniculus, UniProt P04191). The test can be described thus: Binding affinity to SERCA1a in sarcoplasmic reticulum vesicles of rabbit skeletal muscle after 2.5 to 6 mins by spectrophotometric analysis. Set-up: species or system Muscle tissue.
Sequence of Sarcoplasmic/endoplasmic reticulum calcium ATPase 1 (P04191 whole entry): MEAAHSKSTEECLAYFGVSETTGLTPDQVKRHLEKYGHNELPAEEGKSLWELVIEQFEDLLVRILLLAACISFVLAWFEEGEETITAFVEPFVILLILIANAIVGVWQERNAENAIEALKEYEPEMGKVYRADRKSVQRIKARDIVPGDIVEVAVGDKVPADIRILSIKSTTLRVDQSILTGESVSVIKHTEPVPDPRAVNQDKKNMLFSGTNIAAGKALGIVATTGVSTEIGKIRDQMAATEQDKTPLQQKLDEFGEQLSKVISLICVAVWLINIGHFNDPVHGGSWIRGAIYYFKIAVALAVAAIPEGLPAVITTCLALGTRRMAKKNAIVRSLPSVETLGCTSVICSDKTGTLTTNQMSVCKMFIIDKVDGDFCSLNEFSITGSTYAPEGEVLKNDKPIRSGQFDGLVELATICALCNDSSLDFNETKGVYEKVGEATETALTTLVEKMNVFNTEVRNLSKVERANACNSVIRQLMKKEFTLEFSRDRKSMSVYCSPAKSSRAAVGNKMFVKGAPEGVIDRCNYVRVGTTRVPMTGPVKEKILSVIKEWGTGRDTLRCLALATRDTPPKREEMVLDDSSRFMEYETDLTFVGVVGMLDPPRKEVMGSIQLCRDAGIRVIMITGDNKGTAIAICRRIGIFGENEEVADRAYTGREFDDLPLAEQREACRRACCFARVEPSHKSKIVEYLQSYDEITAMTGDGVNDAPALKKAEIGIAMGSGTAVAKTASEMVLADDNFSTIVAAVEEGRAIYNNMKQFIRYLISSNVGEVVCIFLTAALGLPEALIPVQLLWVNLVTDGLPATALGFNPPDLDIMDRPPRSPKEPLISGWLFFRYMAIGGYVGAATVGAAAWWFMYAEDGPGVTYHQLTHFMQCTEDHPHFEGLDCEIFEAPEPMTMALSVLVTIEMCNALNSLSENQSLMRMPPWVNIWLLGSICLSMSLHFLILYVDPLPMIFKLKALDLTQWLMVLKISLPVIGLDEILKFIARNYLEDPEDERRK
As for `C/C=C(/C)C(=O)O[C@H]1C(C)=C2[C@H]([C@@H]1OC(=O)CCCCCCC)[C@@](C)(OC(=O)CCCCCCC)C[C@H](OC(=O)CCC)[C@@]1(O)[C@H]2OC(=O)[C@@]1(C)O`, the Kd amounted to 2.5 nM.
For `C/C=C(/C)C(=O)O[C@H]1C(C)=C2[C@H]([C@@H]1OC(=O)c1ccccc1)[C@@](C)(OC(C)=O)C[C@H](OC(=O)CCC)[C@@]1(O)[C@H]2OC(=O)[C@@]1(C)O` the value was 1.5 nM.
The figure for `C/C=C(/C)C(=O)O[C@H]1C(C)=C2[C@H]([C@@H]1OC(=O)CCCCCCC)[C@@](C)(OC(C)=O)C[C@H](OC(=O)CCC)[C@@]1(OC(=O)CCC)[C@H]2OC(=O)[C@@]1(C)O` is 11 nM; for `C/C=C(/C)C(=O)O[C@H]1C(C)=C2[C@H]([C@@H]1OC(=O)CCCCCCC)[C@@](C)(OC(C)=O)C[C@H](OC(=O)CCC)[C@@]1(OC(=O)CCCCC)[C@H]2OC(=O)[C@@]1(C)O` it is 8.5 nM; for `C/C=C(/C)C(=O)O[C@H]1C(C)=C2[C@H]([C@@H]1OC(=O)CCCCCCC)[C@@](C)(OC(C)=O)C[C@H](OC(=O)CCC)[C@@]1(OC(=O)C(C)C)[C@H]2OC(=O)[C@@]1(C)O` it is 13 nM.
Regarding `C/C=C(/C)C(=O)O[C@H]1C(C)=C2[C@H]([C@@H]1OC(=O)CCCCCCC)[C@@](C)(OC(C)=O)C[C@H](OC(=O)CCC)[C@@]1(OC(=O)CCCCCCC)[C@H]2OC(=O)[C@@]1(C)O`, the dissociation constant (Kd) was determined as 55 nM.
The figure for `C/C=C(/C)C(=O)O[C@H]1C(C)=C2[C@H]([C@@H]1OC(=O)CCCCCCC)[C@@](C)(OC(C)=O)C[C@H](OC(=O)CCC)[C@@]1(OC(C)=O)[C@H]2OC(=O)[C@@]1(C)O` is 2.6 nM; for `C/C=C(/C)C(=O)O[C@H]1C(C)=C2[C@H]([C@@H]1OC(=O)CCCCCCC)[C@@](C)(OC(C)=O)C[C@H](OC(=O)CCC)[C@@]1(O)[C@H]2O[C@H]2N=C(C)O[C@]21C` it is 1.7 nM.
For `C/C=C(/C)C(=O)O[C@H]1C(C)=C2[C@H]([C@@H]1OC(=O)CCCCCCC)[C@@](C)(OC(C)=O)C[C@H](OC(=O)CCC)[C@@]1(O)[C@H]2O[C@H]2N=C(CCC)O[C@]21C` the value was 20 nM; for `C/C=C(/C)C(=O)O[C@H]1C(C)=C2[C@H]([C@@H]1OC(=O)CCCCCCC)[C@@](C)(OC(C)=O)C[C@H](OC(=O)CCC)[C@@]1(O)[C@H]2O[C@H]2N=C(CCOCC)O[C@]21C`, 79 nM.
The figure for `C/C=C(/C)C(=O)O[C@H]1C(C)=C2[C@H]([C@@H]1OC(=O)CCCCCCC)[C@@](C)(OC(C)=O)C[C@H](OC(=O)CCC)[C@]13O[C@]1(C)C(=O)O[C@@H]23` is 13 nM; for `C/C=C(/C)C(=O)O[C@H]1C(C)=C2[C@H]([C@@H]1OC(=O)CCCCCCC)[C@@](C)(OC(C)=O)C[C@H](OC(=O)CCC)[C@@]1(O)[C@H]2O[C@H](OC(C)=O)[C@@]1(C)OC(C)=O` (relative stereo) it is 9.4 nM.
Consider `C/C=C(/C)C(=O)O[C@H]1C(C)=C2[C@H]([C@@H]1OC(=O)CCCCCCC)[C@@](C)(OC(C)=O)C[C@H](O)[C@@]1(O)[C@H]2OC(=O)[C@@]1(C)O` [DEBUTANOYLTHAPSIGARGIN], for which the Kd turned out to be 10 nM.
The figure for `C/C=C(/C)C(=O)O[C@H]1C(C)=C2[C@H]([C@@H]1OC(=O)CCCCCCC)[C@@](C)(OC(C)=O)C[C@H](OC(=O)CCC)[C@@]1(O)[C@H]2OC(=O)[C@@]1(C)O` [THAPSIGARGIN] is 0.2 nM.
